# Results from paper PMC9090415, “Discovery of small molecule inhibitors of Plasmodium falciparum apicoplast DNA polymerase” (Journal of Enzyme Inhibition and Medicinal Chemistry, 2022).
# Molecular target: P. falciparum apicoplast DNA polymerase (Pf-apPOL) (Plasmodium falciparum, UniProt Q8ILY1)
# Test: Fluorescence-based high-throughput DNA polymerase assay (molecular beacon), primary screen and dose-response
# Assay type: biochemical
# How it was run: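 Single-point screening used 10 µM compound with 20 nM polymerase, 20 nM hairpin substrate and 6 µM dNTPs for 90 min at 25 °C. Confirmatory titrations (2.5–80 µM) followed fluorescence at three times, and IC50 was derived from a fit including a cooperativity term n.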
# Sequence of P. falciparum apicoplast DNA polymerase (Pf-apPOL) (Q8ILY1 entry or part of it): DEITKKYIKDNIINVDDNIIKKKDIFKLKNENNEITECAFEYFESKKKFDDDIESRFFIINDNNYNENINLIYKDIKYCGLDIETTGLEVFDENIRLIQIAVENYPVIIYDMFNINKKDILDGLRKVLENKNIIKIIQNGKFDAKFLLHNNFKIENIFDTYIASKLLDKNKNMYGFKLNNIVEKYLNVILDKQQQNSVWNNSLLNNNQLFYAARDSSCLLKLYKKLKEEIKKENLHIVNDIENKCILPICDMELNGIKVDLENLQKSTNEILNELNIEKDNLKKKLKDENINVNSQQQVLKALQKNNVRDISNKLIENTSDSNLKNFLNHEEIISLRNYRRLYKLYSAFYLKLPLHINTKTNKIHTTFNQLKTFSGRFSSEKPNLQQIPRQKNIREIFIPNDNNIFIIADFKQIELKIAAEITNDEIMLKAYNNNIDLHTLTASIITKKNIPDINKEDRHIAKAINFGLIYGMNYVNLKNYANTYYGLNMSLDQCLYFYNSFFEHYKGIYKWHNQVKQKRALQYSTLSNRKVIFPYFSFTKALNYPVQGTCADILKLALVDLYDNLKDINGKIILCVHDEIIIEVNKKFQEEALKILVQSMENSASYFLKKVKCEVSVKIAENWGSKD
structure (smiles),measurement,setting,value
Cc1ccc(NC(=O)Cn2ccc3c(=O)[nH]ccc32)c(C)c1 [KU0205125],DNA Pol,"'DNA Pol' of the 186 hits list (screen value); 90 min, 10 µM",21
same,% inhibition Apo pol 10',DRC-1; 10'; conc 2.5,10.1191%
same,% inhibition Apo pol 10',DRC-1; 10'; conc 5,18.1282%
same,% inhibition Apo pol 10',DRC-1; 10'; conc 10,33.277%
same,% inhibition Apo pol 10',DRC-1; 10'; conc 20,57.4285%
same,% inhibition Apo pol 10',DRC-1; 10'; conc 40,86.5673%
same,% inhibition Apo pol 10',DRC-1; 10'; conc 80,93.6236%
same,% inhibition Apol 90',DRC-1; 90'; conc 2.5,1.128%
same,% inhibition Apol 90',DRC-1; 90'; conc 5,2.856%
same,% inhibition Apol 90',DRC-1; 90'; conc 10,16.2688%
same,% inhibition Apol 90',DRC-1; 90'; conc 20,36.6738%
same,% inhibition Apol 90',DRC-1; 90'; conc 40,74.6586%
same,% inhibition Apol 90',DRC-1; 90'; conc 80,93.7132%
same,% inhibition apPOL 180',DRC-1; 180'; conc 2.5,-4.92%
same,% inhibition apPOL 180',DRC-1; 180'; conc 5,-5.3418%
same,% inhibition apPOL 180',DRC-1; 180'; conc 10,4.52%
same,% inhibition apPOL 180',DRC-1; 180'; conc 20,18.6019%
same,% inhibition apPOL 180',DRC-1; 180'; conc 40,59.9504%
same,% inhibition apPOL 180',DRC-1; 180'; conc 80,92.9849%
same,% inhibition Apo pol 5',DRC-2; 5'; conc 2.5,-2.19%
same,% inhibition Apo pol 5',DRC-2; 5'; conc 5,1.9%
same,% inhibition Apo pol 5',DRC-2; 5'; conc 10,23%
same,% inhibition Apo pol 5',DRC-2; 5'; conc 20,44%
same,% inhibition Apo pol 5',DRC-2; 5'; conc 40,52%
same,% inhibition Apo pol 5',DRC-2; 5'; conc 80,50%
same,% inhibition Apo pol 5',DRC-2; 5'; concentration 20,44%
same,% inhibition Apol 40',DRC-2; 40'; conc 2.5,-3.78%
same,% inhibition Apol 40',DRC-2; 40'; conc 5,-0.571%
same,% inhibition Apol 40',DRC-2; 40'; conc 10,20%
same,% inhibition Apol 40',DRC-2; 40'; conc 20,48%
same,% inhibition Apol 40',DRC-2; 40'; conc 40,70%
same,% inhibition Apol 40',DRC-2; 40'; conc 80,73%
same,% inhibition ApPOL 90',DRC-2; 90'; conc 2.5,-5%
same,% inhibition ApPOL 90',DRC-2; 90'; conc 5,-4%
same,% inhibition ApPOL 90',DRC-2; 90'; conc 10,15%
same,% inhibition ApPOL 90',DRC-2; 90'; conc 20,44%
same,% inhibition ApPOL 90',DRC-2; 90'; conc 40,71%
same,% inhibition ApPOL 90',DRC-2; 90'; conc 80,78%
same,% inhibition ApPOL 90',DRC-2; 90'; concentration 20,44%
same,% inhibition apPOL 180',DRC-2; 180'; conc 2.5,-10%
same,% inhibition apPOL 180',DRC-2; 180'; conc 5,-11%
same,% inhibition apPOL 180',DRC-2; 180'; conc 10,3%
same,% inhibition apPOL 180',DRC-2; 180'; conc 20,30%
same,% inhibition apPOL 180',DRC-2; 180'; conc 40,69%
same,% inhibition apPOL 180',DRC-2; 180'; conc 80,82%
same,DNA Pol,"primary screen value, ""DNA Pol""; 90 min, 10 µM",21
O=C(O)C(=O)Nc1nc(-c2ccc3c(c2)OCCO3)cs1 [Molecule 82],IC50,"supplemental file 2, sheet IC50 nontoxic compounds; Pf-apPOL",40.5 µM
CC1=NNC(=O)C1Oc1ccc(Cl)cc1Cl (stereo not shown) [KU0265591],DNA Pol,"'DNA Pol'; screening value, unit not given; 90 min, 10 µM",75
same,% inhibition Apo pol 10',DRC-1; 10'; concentration 2.5,8.365%
same,% inhibition Apo pol 10',DRC-1; 10'; concentration 5,10.5259%
same,% inhibition Apo pol 10',DRC-1; 10'; concentration 10,21.6096%
same,% inhibition Apo pol 10',DRC-1; 10'; concentration 20,39.4478%
same,% inhibition Apo pol 10',DRC-1; 10'; concentration 40,60.3328%
same,% inhibition Apo pol 10',DRC-1; 10'; concentration 80,74.8276%
same,% inhibition Apol 90',DRC-1; 90'; concentration 2.5,-1.52%
same,% inhibition Apol 90',DRC-1; 90'; concentration 5,-3.728%
same,% inhibition Apol 90',DRC-1; 90'; concentration 10,5.588%
same,% inhibition Apol 90',DRC-1; 90'; concentration 20,19.9514%
same,% inhibition Apol 90',DRC-1; 90'; concentration 40,37.9721%
same,% inhibition Apol 90',DRC-1; 90'; concentration 80,53.1645%
same,% inhibition apPOL 180',DRC-1; 180'; concentration 2.5,-5.173%
same,% inhibition apPOL 180',DRC-1; 180'; concentration 5,-9.633%
same,% inhibition apPOL 180',DRC-1; 180'; concentration 10,-1.598%
same,% inhibition apPOL 180',DRC-1; 180'; concentration 20,9.166%
same,% inhibition apPOL 180',DRC-1; 180'; concentration 40,27.6068%
same,% inhibition apPOL 180',DRC-1; 180'; concentration 80,41.8944%
same,% inhibition Apo pol 5',"DRC-2, 5', concentration 2.5",10%
same,% inhibition Apo pol 5',"DRC-2, 5', concentration 5",12%
same,% inhibition Apo pol 5',"DRC-2, 5', concentration 10",24%
same,% inhibition Apo pol 5',"DRC-2, 5', concentration 20",32%
same,% inhibition Apo pol 5',"DRC-2, 5', concentration 40",45%
same,% inhibition Apo pol 5',"DRC-2, 5', concentration 80",52%
same,% inhibition Apol 40',"DRC-2, 40', concentration 2.5",5%
same,% inhibition Apol 40',"DRC-2, 40', concentration 5",4.74%
same,% inhibition Apol 40',"DRC-2, 40', concentration 10",15%
same,% inhibition Apol 40',"DRC-2, 40', concentration 20",26%
same,% inhibition Apol 40',"DRC-2, 40', concentration 40",42%
same,% inhibition Apol 40',"DRC-2, 40', concentration 80",53%
same,% inhibition ApPOL 90',"DRC-2, 90', concentration 2.5",1.69%
same,% inhibition ApPOL 90',"DRC-2, 90', concentration 5",-0.164%
same,% inhibition ApPOL 90',"DRC-2, 90', concentration 10",9%
same,% inhibition ApPOL 90',"DRC-2, 90', concentration 20",20%
same,% inhibition ApPOL 90',"DRC-2, 90', concentration 40",37%
same,% inhibition ApPOL 90',"DRC-2, 90', concentration 80",51%
same,% inhibition apPOL 180',"DRC-2, 180', concentration 2.5",-3.43%
same,% inhibition apPOL 180',"DRC-2, 180', concentration 5",-6%
same,% inhibition apPOL 180',"DRC-2, 180', concentration 10",-1.09%
same,% inhibition apPOL 180',"DRC-2, 180', concentration 20",9%
same,% inhibition apPOL 180',"DRC-2, 180', concentration 40",26%
same,% inhibition apPOL 180',"DRC-2, 180', concentration 80",42%
same,% inhibition ApPOL 90',conc 10 (unit not given); 90'; DRC-2,9%
same,% inhibition Apol 40',conc 20 (unit not given); 40'; DRC-2,26%
same,% inhibition apPOL 180',conc 20 (unit not given); 180'; DRC-2,9%
same,% inhibition Apol 40',conc 40 (unit not given); 40'; DRC-2,42%
same,% inhibition apPOL 180',conc 40 (unit not given); 180'; DRC-2,26%
same,% inhibition apPOL 180',conc 80 (unit not given); 180'; DRC-2,42%
same,DNA Pol,"primary screen hit value, DNA Pol (186 hits); 90 min, 10 µM",75
